Measured values reported in patent US11447505B1, “Pyrrolo[2,3-b]pyridine compounds and their use in the treatment of cancer” (priority 2017, dated 2022).
Read-outs that look alike come from different tables or passages of the source.

Assays:
MRCKα = MRCKα (Homo sapiens (Human), UniProt Q5VT25); assay: MRCKα kinase assay (IMAP fluorescence polarization); format: biochemical; settings: 1 μM ATP; read-out: MRCK-a Average Ki
Source text: (§1) MRCKα, MRCKβ, ROCK1 and ROCK2 Kinase Assays

MRCKβ = MRCKβ (Homo sapiens (Human), UniProt Q9Y5S2); assay: MRCKβ kinase assay (IMAP fluorescence polarization); format: biochemical; settings: 1 μM ATP; read-out: MRCK-B Average Ki
Source text: as §1

ROCK2 = ROCK2 (Homo sapiens (Human), UniProt O75116); assay: ROCK2 kinase assay (IMAP fluorescence polarization); format: biochemical; settings: 1 μM ATP; read-out: ROCK2 Average Ki
ROCK1 [1] = target: T1, ROCK1 (Homo sapiens (Human), UniProt Q13464); settings: read-out: ROCK1 Average Ki; 1 μM ATP
ROCK1 [2] = target: T1, ROCK1; assay: biochemical

T1 sequence (Q13464 2-1354 limits assumed): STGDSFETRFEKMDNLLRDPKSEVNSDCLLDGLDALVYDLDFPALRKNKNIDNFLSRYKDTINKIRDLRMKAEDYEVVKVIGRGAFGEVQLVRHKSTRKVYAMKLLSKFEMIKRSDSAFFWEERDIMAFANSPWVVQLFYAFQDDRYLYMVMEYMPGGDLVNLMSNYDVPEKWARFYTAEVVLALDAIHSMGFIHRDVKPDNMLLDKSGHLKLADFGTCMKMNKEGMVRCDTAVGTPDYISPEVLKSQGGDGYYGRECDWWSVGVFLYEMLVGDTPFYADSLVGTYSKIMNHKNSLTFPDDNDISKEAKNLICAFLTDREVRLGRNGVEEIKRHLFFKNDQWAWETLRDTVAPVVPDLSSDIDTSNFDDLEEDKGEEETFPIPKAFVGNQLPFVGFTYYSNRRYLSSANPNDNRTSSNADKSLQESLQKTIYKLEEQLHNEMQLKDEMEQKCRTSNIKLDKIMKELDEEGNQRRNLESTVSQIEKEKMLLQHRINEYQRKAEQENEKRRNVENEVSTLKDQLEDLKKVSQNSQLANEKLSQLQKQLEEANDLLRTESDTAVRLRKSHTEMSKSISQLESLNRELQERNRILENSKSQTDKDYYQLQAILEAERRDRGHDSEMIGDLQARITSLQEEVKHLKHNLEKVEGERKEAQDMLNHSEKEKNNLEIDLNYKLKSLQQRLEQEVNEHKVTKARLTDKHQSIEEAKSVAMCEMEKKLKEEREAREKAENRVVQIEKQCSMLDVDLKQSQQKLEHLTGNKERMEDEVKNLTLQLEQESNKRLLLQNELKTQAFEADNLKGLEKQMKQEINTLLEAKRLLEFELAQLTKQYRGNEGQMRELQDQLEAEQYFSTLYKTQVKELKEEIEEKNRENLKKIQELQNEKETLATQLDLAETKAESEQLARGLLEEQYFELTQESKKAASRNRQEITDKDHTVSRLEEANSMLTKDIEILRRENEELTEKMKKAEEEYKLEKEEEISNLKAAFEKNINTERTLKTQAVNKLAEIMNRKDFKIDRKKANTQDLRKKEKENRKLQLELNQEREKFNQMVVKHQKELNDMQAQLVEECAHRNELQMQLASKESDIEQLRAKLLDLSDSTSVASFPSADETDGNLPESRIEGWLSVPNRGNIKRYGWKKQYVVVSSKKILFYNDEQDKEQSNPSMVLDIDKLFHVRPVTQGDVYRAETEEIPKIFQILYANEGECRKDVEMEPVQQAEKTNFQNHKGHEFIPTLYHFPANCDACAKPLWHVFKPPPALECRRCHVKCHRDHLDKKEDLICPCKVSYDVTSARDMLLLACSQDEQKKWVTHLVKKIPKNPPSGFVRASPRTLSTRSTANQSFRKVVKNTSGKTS
Chain of ROCK2 (O75116 whole entry): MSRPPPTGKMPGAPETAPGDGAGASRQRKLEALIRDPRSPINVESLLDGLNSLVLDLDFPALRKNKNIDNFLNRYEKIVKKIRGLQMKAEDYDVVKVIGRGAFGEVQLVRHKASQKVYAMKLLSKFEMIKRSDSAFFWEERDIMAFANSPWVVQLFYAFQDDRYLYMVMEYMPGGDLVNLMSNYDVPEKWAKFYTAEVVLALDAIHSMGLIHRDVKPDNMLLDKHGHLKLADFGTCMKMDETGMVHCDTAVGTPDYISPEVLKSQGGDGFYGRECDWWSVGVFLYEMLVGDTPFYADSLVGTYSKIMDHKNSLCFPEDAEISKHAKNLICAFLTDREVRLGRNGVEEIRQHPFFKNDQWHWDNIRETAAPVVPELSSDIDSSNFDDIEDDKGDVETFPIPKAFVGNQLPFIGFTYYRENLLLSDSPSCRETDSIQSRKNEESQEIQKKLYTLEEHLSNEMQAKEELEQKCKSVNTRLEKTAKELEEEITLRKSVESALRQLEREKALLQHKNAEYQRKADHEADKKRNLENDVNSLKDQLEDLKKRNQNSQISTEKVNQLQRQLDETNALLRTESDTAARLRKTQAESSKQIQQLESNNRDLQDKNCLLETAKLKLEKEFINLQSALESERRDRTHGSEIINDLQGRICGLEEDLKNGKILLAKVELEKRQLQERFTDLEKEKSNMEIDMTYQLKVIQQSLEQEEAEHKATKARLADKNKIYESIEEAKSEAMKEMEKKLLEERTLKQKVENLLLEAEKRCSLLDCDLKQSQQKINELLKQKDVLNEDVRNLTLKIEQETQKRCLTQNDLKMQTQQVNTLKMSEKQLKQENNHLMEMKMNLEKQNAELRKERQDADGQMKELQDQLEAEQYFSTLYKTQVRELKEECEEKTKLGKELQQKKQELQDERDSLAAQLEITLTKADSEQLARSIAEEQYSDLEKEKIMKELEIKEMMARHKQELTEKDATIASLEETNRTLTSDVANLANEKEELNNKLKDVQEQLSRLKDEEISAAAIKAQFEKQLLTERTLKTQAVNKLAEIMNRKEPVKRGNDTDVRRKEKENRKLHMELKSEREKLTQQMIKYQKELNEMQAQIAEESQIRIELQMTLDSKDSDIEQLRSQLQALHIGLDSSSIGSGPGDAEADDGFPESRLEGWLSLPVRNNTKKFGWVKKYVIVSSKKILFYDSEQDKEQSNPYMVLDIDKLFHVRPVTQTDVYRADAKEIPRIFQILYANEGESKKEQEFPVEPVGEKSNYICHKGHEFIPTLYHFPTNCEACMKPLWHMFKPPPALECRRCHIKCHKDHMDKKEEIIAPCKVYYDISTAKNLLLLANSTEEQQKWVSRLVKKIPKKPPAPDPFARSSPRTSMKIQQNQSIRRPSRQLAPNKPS
Chain of MRCKα (Q5VT25 whole entry): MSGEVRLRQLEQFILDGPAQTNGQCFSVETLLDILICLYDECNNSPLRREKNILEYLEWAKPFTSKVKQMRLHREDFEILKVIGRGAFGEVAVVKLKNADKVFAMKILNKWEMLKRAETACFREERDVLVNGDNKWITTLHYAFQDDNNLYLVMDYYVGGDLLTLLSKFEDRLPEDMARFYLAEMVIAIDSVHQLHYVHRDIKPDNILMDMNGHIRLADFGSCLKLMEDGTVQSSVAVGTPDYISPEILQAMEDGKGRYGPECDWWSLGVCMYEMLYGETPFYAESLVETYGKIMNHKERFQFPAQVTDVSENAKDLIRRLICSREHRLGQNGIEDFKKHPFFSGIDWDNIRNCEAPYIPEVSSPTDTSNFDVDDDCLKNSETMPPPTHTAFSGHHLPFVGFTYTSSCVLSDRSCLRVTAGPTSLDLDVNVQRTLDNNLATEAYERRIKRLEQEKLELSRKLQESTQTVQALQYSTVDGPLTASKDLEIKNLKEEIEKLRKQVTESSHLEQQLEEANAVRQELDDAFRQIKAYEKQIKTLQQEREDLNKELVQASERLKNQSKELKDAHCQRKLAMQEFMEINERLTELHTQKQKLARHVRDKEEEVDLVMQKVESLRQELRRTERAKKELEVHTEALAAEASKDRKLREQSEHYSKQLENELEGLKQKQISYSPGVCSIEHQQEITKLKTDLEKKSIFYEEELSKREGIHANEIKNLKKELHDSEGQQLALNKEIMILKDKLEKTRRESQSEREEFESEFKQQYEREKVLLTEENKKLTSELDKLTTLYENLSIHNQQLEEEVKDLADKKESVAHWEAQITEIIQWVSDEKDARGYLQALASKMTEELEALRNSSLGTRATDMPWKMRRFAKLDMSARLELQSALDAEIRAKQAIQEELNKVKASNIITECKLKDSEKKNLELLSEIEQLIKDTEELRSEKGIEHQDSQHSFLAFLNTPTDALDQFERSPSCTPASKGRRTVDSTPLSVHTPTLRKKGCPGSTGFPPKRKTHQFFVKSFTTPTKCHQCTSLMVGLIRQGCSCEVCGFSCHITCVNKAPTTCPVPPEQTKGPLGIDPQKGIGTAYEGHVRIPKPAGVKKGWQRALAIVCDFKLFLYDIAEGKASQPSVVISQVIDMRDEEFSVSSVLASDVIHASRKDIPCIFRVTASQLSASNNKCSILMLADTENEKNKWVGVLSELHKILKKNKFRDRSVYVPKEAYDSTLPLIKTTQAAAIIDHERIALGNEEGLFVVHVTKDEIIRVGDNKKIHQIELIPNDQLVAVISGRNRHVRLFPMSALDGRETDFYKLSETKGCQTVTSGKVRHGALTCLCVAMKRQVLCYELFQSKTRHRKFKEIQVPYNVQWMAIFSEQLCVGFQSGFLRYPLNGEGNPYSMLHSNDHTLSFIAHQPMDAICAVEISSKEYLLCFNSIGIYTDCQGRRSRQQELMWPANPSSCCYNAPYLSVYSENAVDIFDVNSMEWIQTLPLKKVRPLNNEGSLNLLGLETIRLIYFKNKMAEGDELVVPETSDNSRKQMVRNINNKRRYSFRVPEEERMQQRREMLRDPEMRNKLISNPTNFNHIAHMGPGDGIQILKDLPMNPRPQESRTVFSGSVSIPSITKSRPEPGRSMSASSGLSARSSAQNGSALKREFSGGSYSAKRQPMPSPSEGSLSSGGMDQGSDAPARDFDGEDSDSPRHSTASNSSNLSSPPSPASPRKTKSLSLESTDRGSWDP

SMILES: CNC1CCCN(c2ccnc3[nH]cc(-c4cncnc4)c23)CC1 (centres unmarked) [Example E68, N-methyl-1-(3-pyrimidin-5-yl-1H-pyrrolo[2,3-b]pyridin-4-yl)azepan-4-amine]
- Ki (MRCKα): 0.000382 µM
- Ki (MRCKβ): 0.00109 µM
- Ki (ROCK2): 0.0369 µM
- Ki (ROCK1 [1]): 0.0559 µM

SMILES: N[C@H]1CCCN(c2ccnc3[nH]cc(-c4cncnc4)c23)C1 [Example E69, (3S)-1-(3-pyrimidin-5-yl-1H-pyrrolo[2,3-b]pyridin-4-yl)piperidin-3-amine]
- Ki (MRCKα): 0.0045 µM
- Ki (MRCKβ): 0.00272 µM
- Ki (ROCK2): 0.274 µM
- Ki (ROCK1 [1]): 0.461 µM

SMILES: CN[C@H]1CCCN(c2ccnc3[nH]cc(-c4cnccn4)c23)C1 [Example E72, (3S)-N-methyl-1-(3-pyrazin-2-yl-1H-pyrrolo[2,3-b]pyridin-4-yl)piperidin-3-amine]
- Ki (MRCKα): 0.000629 µM
- Ki (MRCKβ): 0.00298 µM
- Ki (ROCK2): 0.268 µM
- Ki (ROCK1 [1]): 51.1 µM

SMILES: CCN[C@H]1CCCN(c2ccnc3[nH]cc(-c4cnn(C)c4)c23)C1 [Example E78, (3S)-N-ethyl-1-[3-(1-methylpyrazol-4-yl)-1H-pyrrolo[2,3-b]pyridin-4-yl]piperidin-3-amine]
- Ki (MRCKα): 0.00348 µM
- Ki (MRCKβ): 0.00851 µM
- Ki (ROCK2): 0.0615 µM
- Ki (ROCK1 [1]): 0.105 µM

SMILES: CCN[C@H]1CCCN(c2ccnc3[nH]cc(-c4cncnc4)c23)C1 [Example E79, (3S)-N-ethyl-1-(3-pyrimidin-5-yl-1H-pyrrolo[2,3-b]pyridin-4-yl)piperidin-3-amine]
- Ki (MRCKα): 0.00123 µM
- Ki (MRCKβ): 0.00227 µM
- Ki (ROCK2): 0.448 µM
- Ki (ROCK1 [1]): 50.7 µM

SMILES: c1ncc(-c2c[nH]c3nccc(N4CCC[C@H](NC5CC5)C4)c23)cn1 [Example E81, (3S)-N-cyclopropyl-1-(3-pyrimidin-5-yl-1H-pyrrolo[2,3-b]pyridin-4-yl)piperidin-3-amine]
- Ki (MRCKα): 0.000935 µM
- Ki (MRCKβ): 0.00336 µM
- Ki (ROCK2): 0.184 µM
- Ki (ROCK1 [1]): 0.357 µM

SMILES: CN(C)[C@H]1CCCN(c2ccnc3[nH]cc(-c4cncnc4)c23)C1 [Example E82, (3S)-N,N-dimethyl-1-(3-pyrimidin-5-yl-1H-pyrrolo[2,3-b]pyridin-4-yl)piperidin-3-amine]
- Ki (MRCKα): 0.0172 µM
- Ki (MRCKβ): 0.0131 µM
- Ki (ROCK2): 0.362 µM
- Ki (ROCK1 [1]): 0.647 µM

SMILES: CN[C@H]1CCCN(c2ccnc3[nH]cc(-c4cn[nH]c4)c23)C1 [Example E84, (3S)-N-methyl-1-[3-(1H-pyrazol-4-yl)-1H-pyrrolo[2,3-b]pyridin-4-yl]piperidin-3-amine]
- Ki (MRCKα): 0.000522 µM
- Ki (MRCKβ): 0.00342 µM
- Ki (ROCK2): 0.0372 µM
- Ki (ROCK1 [1]): 0.167 µM

SMILES: NCC1CCCN(c2ccnc3[nH]cc(-c4cncnc4)c23)C1 (centres unmarked) [Example E86, [1-(3-pyrimidin-5-yl-1H-pyrrolo[2,3-b]pyridin-4-yl)-3-piperidyl]methanamine]
- Ki (MRCKα): 0.0046 µM
- Ki (MRCKβ): 0.00185 µM
- Ki (ROCK2): 0.0105 µM
- Ki (ROCK1 [1]): 0.0082 µM

SMILES: FC1CCN([C@H]2CCCN(c3ccnc4[nH]cc(-c5cncnc5)c34)C2)C1 (stereo partly drawn) [Example E95, 4-[(3S)-3-(3-fluoropyrrolidin-1-yl)-1-piperidyl]-3-pyrimidin-5-yl-1H-pyrrolo[2,3-b]pyridine]
- Ki (MRCKα): 0.0194 µM
- Ki (MRCKβ): 0.00698 µM
- Ki (ROCK2): 0.395 µM
- Ki (ROCK1 [1]): 0.689 µM

SMILES: c1ncc(-c2c[nH]c3nccc(N4CCC[C@H](N5CCC5)C4)c23)cn1 [Example E97, 4-[(3S)-3-(azetidin-1-yl)-1-piperidyl]-3-pyrimidin-5-yl-1H-pyrrolo[2,3-b]pyridine]
- Ki (MRCKα): 0.0052 µM
- Ki (MRCKβ): 0.00393 µM
- Ki (ROCK2): 0.366 µM
- Ki (ROCK1 [1]): 0.686 µM

SMILES: c1ncc(-c2c[nH]c3nccc(N4CCC[C@H](N5CCCCC5)C4)c23)cn1 [Example E98, 4-[(3S)-3-(1-piperidyl)-1-piperidyl]-3-pyrimidin-5-yl-1H-pyrrolo[2,3-b]pyridine]
- Ki (MRCKα): 0.0079 µM
- Ki (MRCKβ): 0.00424 µM
- Ki (ROCK2): 0.979 µM
- Ki (ROCK1 [1]): 2.53 µM

SMILES: c1ncc(-c2c[nH]c3nccc(N4CCC[C@H](N5CCCC5)C4)c23)cn1 [Example E99, 3-pyrimidin-5-yl-4-[(3S)-3-pyrrolidin-1-yl-1-piperidyl]-1H-pyrrolo[2,3-b]pyridine]
- Ki (MRCKα): 0.0058 µM
- Ki (MRCKβ): 0.00381 µM
- Ki (ROCK2): 0.603 µM
- Ki (ROCK1 [1]): 1.68 µM

SMILES: C[C@@H]1CCCN1c1ccnc2[nH]cc(C#N)c12 [Example E110, 4-[(2R)-2-methylpyrrolidin-1-yl]-1H-pyrrolo[2,3-b]pyridine-3-carbonitrile]
- Ki (MRCKα): 0.0046 µM
- Ki (MRCKβ): 0.00144 µM
- Ki (ROCK2): 0.00244 µM
- Ki (ROCK1 [1]): 0.00278 µM

SMILES: C[C@H]1CCCN1c1ccnc2[nH]cc(C#N)c12 [Example E111, 4-[(2S)-2-methylpyrrolidin-1-yl]-1H-pyrrolo[2,3-b]pyridine-3-carbonitrile]
- Ki (MRCKα): 0.123 µM
- Ki (MRCKβ): 0.0397 µM
- Ki (ROCK2): 0.0255 µM
- Ki (ROCK1 [1]): 0.0852 µM

SMILES: c1cc(-c2c[nH]c3nccc(N4CCC[C@]5(CCCCN5)C4)c23)ncn1 [Example E118, (6R)-8-(3-pyrimidin-4-yl-1H-pyrrolo[2,3-b]pyridin-4-yl)-1,8-diazaspiro[5.5]undecane]
- Ki (MRCKα): 0.00289 µM
- Ki (MRCKβ): 0.00147 µM
- Ki (ROCK2): 0.299 µM
- Ki (ROCK1 [1]): 50.3 µM

SMILES: c1cnc(-c2c[nH]c3nccc(N4CCCC5(CCCCN5)C4)c23)nc1 (centres unmarked) [Example E157, 8-(3-pyrimidin-2-yl-1H-pyrrolo[2,3-b]pyridin-4-yl)-1,8-diazaspiro[5.5]undecane]
- Ki (MRCKα): 0.00134 µM
- Ki (MRCKβ): 0.00104 µM
- Ki (ROCK2): 100 µM
- Ki (ROCK1 [1]): 100 µM

SMILES: c1cnnc(-c2c[nH]c3nccc(N4CCCC5(CCCCN5)C4)c23)c1 (centres unmarked) [Example E175, 8-(3-pyridazin-3-yl-1H-pyrrolo[2,3-b]pyridin-4-yl)-1,8-diazaspiro[5.5]undecane]
- Ki (MRCKα): 0.000257 µM
- Ki (MRCKβ): 0.0015 µM
- Ki (ROCK2): 0.547 µM
- Ki (ROCK1 [1]): 1.86 µM

SMILES: c1cc(-c2c[nH]c3nccc(N4CCCCC4)c23)[nH]n1 [Example E181, 4-(1-piperidyl)-3-(1H-pyrazol-5-yl)-1H-pyrrolo[2,3-b]pyridine]
- Ki (MRCKα): 0.0091 µM
- Ki (MRCKβ): 0.00945 µM
- Ki (ROCK2): 0.0155 µM
- Ki (ROCK1 [1]): 0.025 µM

SMILES: c1cncc(-c2c[nH]c3nccc(N4CCCCC4)c23)c1 [Example E182, 4-(1-piperidyl)-3-(3-pyridyl)-1H-pyrrolo[2,3-b]pyridine]
- Ki (MRCKα): 0.009 µM
- Ki (MRCKβ): 0.0188 µM
- Ki (ROCK2): 0.09 µM
- Ki (ROCK1 [1]): 0.132 µM

SMILES: c1cc(N2CCCCC2)c2c(-c3cn[nH]c3)c[nH]c2n1 [Example E183, 4-(1-piperidyl)-3-(1H-pyrazol-4-yl)-1H-pyrrolo[2,3-b]pyridine]
- Ki (MRCKα): 0.0126 µM
- Ki (MRCKβ): 0.00603 µM
- Ki (ROCK2): 0.0123 µM
- Ki (ROCK1 [1]): 0.031 µM

SMILES: N#Cc1c[nH]c2nccc(N3CCC4(CCCCN4)C3)c12 (centres unmarked) [Example E184, 4-(2,6-diazaspiro[4.5]decan-2-yl)-1H-pyrrolo[2,3-b]pyridine-3-carbonitrile]
- Ki (ROCK1 [2]): 0.0219 µM

SMILES: N#Cc1c[nH]c2nccc(N3CCC[C@]4(CCCCN4)C3)c12 [Example E186, 4-[(6R)-1,8-diazaspiro[5.5]undecan-8-yl]-1H-pyrrolo[2,3-b]pyridine-3-carbonitrile]
- Ki (ROCK1 [2]): 0.347 µM

SMILES: Cn1cc(-c2c[nH]c3nccc(N4CCCC5(CCCCN5)C4)c23)cn1 (centres unmarked) [Example E188, 8-[3-(1-methylpyrazol-4-yl)-1H-pyrrolo[2,3-b]pyridin-4-yl]-1,8-diazaspiro[5.5]undecane]
- Ki (MRCKα): 0.000598 µM
- Ki (MRCKβ): 0.00152 µM
- Ki (ROCK2): 0.0288 µM
- Ki (ROCK1 [1]): 0.0936 µM

SMILES: c1cnc(-c2c[nH]c3nccc(N4CCCC5(CCCCN5)C4)c23)cn1 (centres unmarked) [Example E189, 8-(3-pyrazin-2-yl-1H-pyrrolo[2,3-b]pyridin-4-yl)-1,8-diazaspiro[5.5]undecane]
- Ki (MRCKα): 0.000131 µM
- Ki (MRCKβ): 0.00131 µM
- Ki (ROCK2): 0.167 µM
- Ki (ROCK1 [1]): 0.643 µM

SMILES: c1ncc(-c2c[nH]c3nccc(N4CCC5(CCCNC5)CC4)c23)cn1 [Example E193, 9-(3-pyrimidin-5-yl-1H-pyrrolo[2,3-b]pyridin-4-yl)-2,9-diazaspiro[5.5]undecane]
- Ki (MRCKα): 0.000218 µM
- Ki (MRCKβ): 0.000969 µM
- Ki (ROCK2): 0.0152 µM
- Ki (ROCK1 [1]): 0.0223 µM

SMILES: c1ncc(-c2c[nH]c3nccc(N4CCCC5(CCCNC5)C4)c23)cn1 (centres unmarked) [Example E194, 2-(3-pyrimidin-5-yl-1H-pyrrolo[2,3-b]pyridin-4-yl)-2,8-diazaspiro[5.5]undecane]
- Ki (MRCKα): 0.000652 µM
- Ki (MRCKβ): 0.00273 µM
- Ki (ROCK2): 0.054 µM
- Ki (ROCK1 [1]): 0.0836 µM

SMILES: c1ncc(-c2c[nH]c3nccc(N4CCCC5(CCCN5)C4)c23)cn1 (centres unmarked) [Example E195, 9-(3-pyrimidin-5-yl-1H-pyrrolo[2,3-b]pyridin-4-yl)-1,9-diazaspiro[4.5]decane]
- Ki (MRCKα): 0.00469 µM
- Ki (MRCKβ): 0.00327 µM
- Ki (ROCK2): 0.174 µM
- Ki (ROCK1 [1]): 0.332 µM

SMILES: c1ncc(-c2c[nH]c3nccc(N4CCCC5(CCCCN5)C4)c23)cn1 (centres unmarked) [Example E196, 8-(3-pyrimidin-5-yl-1H-pyrrolo[2,3-b]pyridin-4-yl)-1,8-diazaspiro[5.5]undecane]
- Ki (MRCKα): 0.0051 µM
- Ki (MRCKβ): 134 µM
- Ki (ROCK2): 0.177 µM
- Ki (ROCK1 [1]): 0.213 µM

SMILES: c1ncc(-c2c[nH]c3nccc(OC4CCCNCC4)c23)cn1 (centres unmarked) [Example E216, 4-(azepan-4-yloxy)-3-pyrimidin-5-yl-1H-pyrrolo[2,3-b]pyridine]
- Ki (MRCKα): 0.00113 µM
- Ki (MRCKβ): 0.00178 µM
- Ki (ROCK2): 0.0558 µM
- Ki (ROCK1 [1]): 0.0668 µM

SMILES: c1ncc(-c2c[nH]c3nccc(OC[C@@H]4CCNC4)c23)cn1 [Example E219, 3-pyrimidin-5-yl-4-[[(3R)-pyrrolidin-3-yl]methoxy]-1H-pyrrolo[2,3-b]pyridine]
- Ki (MRCKα): 0.00252 µM
- Ki (MRCKβ): 0.00371 µM
- Ki (ROCK2): 0.0526 µM
- Ki (ROCK1 [1]): 0.0576 µM

SMILES: c1ncc(-c2c[nH]c3nccc(O[C@H]4CCCNC4)c23)cn1 [Example E222, 4-[[(3S)-3-piperidyl]oxy]-3-pyrimidin-5-yl-1H-pyrrolo[2,3-b]pyridine]
- Ki (MRCKα): 0.0284 µM
- Ki (MRCKβ): 0.0506 µM
- Ki (ROCK2): 50.7 µM
- Ki (ROCK1 [1]): 50.9 µM
